Assay results taken from ChEMBL document CHEMBL4828735, “Discovery of N-((3S,4S)-4-(3,4-Difluorophenyl)piperidin-3-yl)-2-fluoro-4-(1-methyl-1H-pyrazol-5-yl)benzamide (Hu7691), a Potent and Selective Akt Inhibitor That Enables Decrease of Cutaneous Toxicity” (J Med Chem, 2021).
Active and inactive are the calls of the source. The calls are words filed in the database; no cut-off is given here.

Experiments:
U-251 = assay: Antiproliferative activity against human U251 cells assessed as inhibition of cell growth incubated for 72 hrs by SRB method; type: functional, cell-based; conditions: U-251, 72 h
786-0 [1] = assay: Antiproliferative activity against human 786-0 cells assessed as inhibition of cell growth incubated for 72 hrs by SRB assay; type: functional, cell-based; conditions: 786-0, 72 h
Homo sapiens = species: Homo sapiens; assay: Inhibition of PKA (unknown origin) at 0.5 uM
[2] = Tmax in Sprague-Dawley rat at 2 mg/kg, iv measured upto 24 hrs by LC-MS/MS analysis; type: ADME, organism-based; conditions: in vivo
[3] = Tmax in Beagle dog at 20 mg/kg, ig measured upto 96 hrs by LC-MS/MS analysis; type: ADME, organism-based, Canis lupus familiaris; conditions: in vivo, po
Cytochrome P450 2D6 = Cytochrome P450 2D6 (Homo sapiens, UniProt P10635); assay: Inhibition of CYP2D6 (unknown origin); type: ADME
Chain of Cytochrome P450 2D6 (P10635 whole entry): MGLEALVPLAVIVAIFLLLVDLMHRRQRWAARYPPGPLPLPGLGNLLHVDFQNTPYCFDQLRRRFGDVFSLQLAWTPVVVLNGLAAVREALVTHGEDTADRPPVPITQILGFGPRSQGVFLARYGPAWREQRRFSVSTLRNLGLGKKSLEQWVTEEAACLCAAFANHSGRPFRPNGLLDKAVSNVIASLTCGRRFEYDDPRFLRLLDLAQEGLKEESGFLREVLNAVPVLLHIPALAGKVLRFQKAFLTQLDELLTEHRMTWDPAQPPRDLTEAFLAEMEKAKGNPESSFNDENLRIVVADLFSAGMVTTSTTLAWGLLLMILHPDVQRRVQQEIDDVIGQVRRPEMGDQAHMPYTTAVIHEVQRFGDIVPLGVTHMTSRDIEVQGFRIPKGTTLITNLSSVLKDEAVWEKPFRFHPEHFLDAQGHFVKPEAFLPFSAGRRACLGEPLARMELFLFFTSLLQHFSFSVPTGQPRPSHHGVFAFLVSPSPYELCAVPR

[4] = Toxicity in Beagle dog assessed as thymic atrophy at 100 mg/kg; type: organism-based, Canis lupus familiaris; conditions: in vivo
[5] = Toxicity in BALB/c nude mouse xenografted with human KHOS cells assessed as mortality at 12.5 to 50 mg/kg, ig administered once daily for 22 days; type: organism-based; conditions: in vivo, po, 528 h, dose 12.5-50 mg/kg, time 22 day
[6] = Drug metabolism in po dosed Sprague-Dawley rat feces assessed as M1 metabolite formation measured upto 24 hrs by UPLC-TOF-MS/MS analysis; type: ADME, organism-based; conditions: in vivo
[7] = Toxicity in Sprague-Dawley rat assessed as effect on spleen at 25 to 75 mg/kg administered daily for 4 weeks by histopathological analysis; type: organism-based; conditions: in vivo, 672 h, dose 25-75 mg/kg
[8] = target: Cyclin-dependent kinase 2 (Homo sapiens, UniProt P24941); assay: Inhibition of CDK2 (unknown origin)
[9] = Toxicity in BALB/c nude mouse xenografted with human 786-0 cells assessed as change in body weight at 12.5 to 50 mg/kg, ig administered once daily for 22 days; type: organism-based; conditions: in vivo, po, 528 h, dose 12.5-50 mg/kg, time 22 day
[10] = Toxicity in Sprague-Dawley rat assessed as effect on ovaries at 25 to 75 mg/kg administered daily for 4 weeks by histopathological analysis; type: organism-based; conditions: in vivo, 672 h, dose 25-75 mg/kg
KHOS/NP [11] = assay: Antitumor activity against human KHOS cells xenografted in dosed BALB/c nude mouse assessed as tumor growth inhibition at 25 mg/kg, ig administered once daily for 22 days; type: functional, organism-based; conditions: time 22.0 day
[12] = AUC(0 to t) in Sprague-Dawley rat at 15 mg/kg, ig measured upto 72 hrs by LC-MS/MS analysis; type: ADME, organism-based; parameters: route […], dose 15 mg/kg, time <=72; conditions: in vivo, po
[13] = Toxicity in mouse assessed as prone posture at 150 mg/kg; type: organism-based; conditions: in vivo
[14] = Toxicity in Beagle dog assessed as maximum toxicity dose; parameters: species or system Canis lupus familiaris; conditions: in vivo
Aurora kinase A = Aurora kinase A (Homo sapiens, UniProt O14965); assay: Inhibition of Aurora A (unknown origin)
Chain of Aurora kinase A (O14965 whole entry): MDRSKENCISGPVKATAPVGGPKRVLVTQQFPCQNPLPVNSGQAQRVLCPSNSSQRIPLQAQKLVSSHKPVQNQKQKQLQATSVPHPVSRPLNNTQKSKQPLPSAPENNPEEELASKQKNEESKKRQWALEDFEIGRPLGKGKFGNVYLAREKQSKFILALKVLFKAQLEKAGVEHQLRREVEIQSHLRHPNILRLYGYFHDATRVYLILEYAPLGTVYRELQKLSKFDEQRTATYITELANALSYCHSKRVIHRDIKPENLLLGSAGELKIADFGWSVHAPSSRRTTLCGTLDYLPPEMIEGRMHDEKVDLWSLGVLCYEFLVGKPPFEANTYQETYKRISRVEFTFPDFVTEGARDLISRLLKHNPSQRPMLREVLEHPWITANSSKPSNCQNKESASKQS

[15] = Drug metabolism in po dosed Sprague-Dawley rat blood assessed as M1 metabolite formation measured upto 6 hrs by UPLC-TOF-MS/MS analysis; type: ADME, organism-based; conditions: in vivo
[16] = Microsomal stability in human liver microsomes assessed as half life at 50 uM preincubated for 5 mins with NADPH followed by compound addition and measured upto 60 mins by LC-MS/MS analysis; type: ADME, Microsome
CYP2C19 = CYP2C19 (Homo sapiens, UniProt P33261); assay: Inhibition of CYP2C19 (unknown origin) at 100 uM; type: ADME
Chain of CYP2C19 (P33261 whole entry): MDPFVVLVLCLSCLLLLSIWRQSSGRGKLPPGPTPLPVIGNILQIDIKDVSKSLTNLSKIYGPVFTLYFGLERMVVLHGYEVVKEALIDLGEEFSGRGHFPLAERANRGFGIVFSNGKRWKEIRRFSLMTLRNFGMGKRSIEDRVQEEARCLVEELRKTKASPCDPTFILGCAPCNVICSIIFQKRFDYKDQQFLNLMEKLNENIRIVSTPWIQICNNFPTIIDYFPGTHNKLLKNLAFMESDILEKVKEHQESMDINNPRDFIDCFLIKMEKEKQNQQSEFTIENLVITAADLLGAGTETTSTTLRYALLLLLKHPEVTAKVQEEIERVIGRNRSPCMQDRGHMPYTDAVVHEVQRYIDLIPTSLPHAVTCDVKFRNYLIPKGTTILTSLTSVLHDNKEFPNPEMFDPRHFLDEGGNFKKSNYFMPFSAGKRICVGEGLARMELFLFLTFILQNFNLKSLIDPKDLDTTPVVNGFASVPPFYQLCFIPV

HGC-27 = assay: Antiproliferative activity against human HGC-27 cells assessed as inhibition of cell growth incubated for 72 hrs by SRB assay; type: functional, cell-based; conditions: HGC-27, 72 h
OS-RC-2 = assay: Antiproliferative activity against human OS-RC-2 cells assessed as inhibition of cell growth incubated for 72 hrs by SRB method; type: functional, cell-based; conditions: OS-RC-2, 72 h
[17] = AUC(0 to t) in Sprague-Dawley rat at 2 mg/kg, iv measured upto 24 hrs by LC-MS/MS analysis; type: ADME, organism-based; parameters: route intravenous, dose 2 mg/kg, time <=24; conditions: in vivo
[18] = Microsomal stability in human liver microsomes assessed as intrinsic clearance at 50 uM preincubated for 5 mins with NADPH followed by compound addition and measured upto 60 mins by LC-MS/MS analysis; type: ADME, Microsome; conditions: read-out: CLH
[19] = target: Testis-specific serine/threonine-protein kinase 1 (Homo sapiens, UniProt Q9BXA7); assay: Inhibition of TSSK1 (unknown origin)
Chain of Testis-specific serine/threonine-protein kinase 1 (Q9BXA7 whole entry): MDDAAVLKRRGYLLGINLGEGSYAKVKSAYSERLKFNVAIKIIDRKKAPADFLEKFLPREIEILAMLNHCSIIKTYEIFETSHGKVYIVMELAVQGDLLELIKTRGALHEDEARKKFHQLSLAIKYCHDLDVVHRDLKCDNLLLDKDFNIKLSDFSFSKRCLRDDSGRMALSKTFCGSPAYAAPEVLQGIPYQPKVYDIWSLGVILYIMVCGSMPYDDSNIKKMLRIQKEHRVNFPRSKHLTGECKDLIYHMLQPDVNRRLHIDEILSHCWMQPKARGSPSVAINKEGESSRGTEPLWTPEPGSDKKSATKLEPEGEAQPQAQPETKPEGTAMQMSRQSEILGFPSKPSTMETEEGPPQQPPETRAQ

[20] = Half life in Beagle dog at 20 mg/kg, ig measured upto 96 hrs by LC-MS/MS analysis; type: ADME, organism-based, Canis lupus familiaris; conditions: in vivo, po
LNCaP = assay: Antiproliferative activity against human LNCaP cells assessed as inhibition of cell growth incubated for 72 hrs by SRB method; type: functional, cell-based
Cytochrome P450 1A2 = Cytochrome P450 1A2 (Homo sapiens, UniProt P05177); assay: Inhibition of CYP1A2 (unknown origin); type: ADME
Chain of Cytochrome P450 1A2 (P05177 whole entry): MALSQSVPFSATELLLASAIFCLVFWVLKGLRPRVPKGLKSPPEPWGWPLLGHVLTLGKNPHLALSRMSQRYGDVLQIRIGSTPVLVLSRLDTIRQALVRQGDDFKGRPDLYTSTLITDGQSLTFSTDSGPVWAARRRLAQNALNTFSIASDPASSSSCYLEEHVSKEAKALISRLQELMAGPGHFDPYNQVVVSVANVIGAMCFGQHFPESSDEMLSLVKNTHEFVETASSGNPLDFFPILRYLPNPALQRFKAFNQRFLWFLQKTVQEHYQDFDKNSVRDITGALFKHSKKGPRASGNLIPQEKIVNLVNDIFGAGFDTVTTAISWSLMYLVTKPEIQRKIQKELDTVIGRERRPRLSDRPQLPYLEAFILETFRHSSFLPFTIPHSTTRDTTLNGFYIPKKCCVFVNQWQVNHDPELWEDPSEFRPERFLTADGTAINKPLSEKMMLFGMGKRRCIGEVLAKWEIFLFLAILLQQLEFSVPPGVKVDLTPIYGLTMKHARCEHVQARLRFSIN

[21] = Toxicity in Sprague-Dawley rat assessed as appearance of scab on back skin at 25 to 75 mg/kg administered daily for 4 weeks; type: organism-based; conditions: in vivo, 672 h, dose 25-75 mg/kg
Cytochrome P450 3A5 = Cytochrome P450 3A5 (Homo sapiens, UniProt P20815); assay: Inhibition of CYP3A5 (unknown origin); type: ADME
Chain of Cytochrome P450 3A5 (P20815 whole entry): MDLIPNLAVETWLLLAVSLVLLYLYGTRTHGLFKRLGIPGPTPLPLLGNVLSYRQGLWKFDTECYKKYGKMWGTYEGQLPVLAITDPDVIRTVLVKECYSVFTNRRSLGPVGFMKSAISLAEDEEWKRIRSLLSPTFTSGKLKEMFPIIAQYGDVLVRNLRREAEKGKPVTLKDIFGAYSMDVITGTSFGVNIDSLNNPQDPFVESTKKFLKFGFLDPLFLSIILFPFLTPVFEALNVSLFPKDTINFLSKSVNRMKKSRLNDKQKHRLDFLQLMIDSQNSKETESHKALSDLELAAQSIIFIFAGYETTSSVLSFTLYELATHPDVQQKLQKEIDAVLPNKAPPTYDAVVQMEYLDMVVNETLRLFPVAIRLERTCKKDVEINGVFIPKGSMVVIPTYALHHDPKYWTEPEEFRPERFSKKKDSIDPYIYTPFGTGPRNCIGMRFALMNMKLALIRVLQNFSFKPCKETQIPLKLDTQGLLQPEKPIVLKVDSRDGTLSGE

[22] = target: Mitogen-activated protein kinase 9 (Homo sapiens, UniProt P45984); assay: Inhibition of JNK2 (unknown origin)
Chain of Mitogen-activated protein kinase 9 (P45984 whole entry): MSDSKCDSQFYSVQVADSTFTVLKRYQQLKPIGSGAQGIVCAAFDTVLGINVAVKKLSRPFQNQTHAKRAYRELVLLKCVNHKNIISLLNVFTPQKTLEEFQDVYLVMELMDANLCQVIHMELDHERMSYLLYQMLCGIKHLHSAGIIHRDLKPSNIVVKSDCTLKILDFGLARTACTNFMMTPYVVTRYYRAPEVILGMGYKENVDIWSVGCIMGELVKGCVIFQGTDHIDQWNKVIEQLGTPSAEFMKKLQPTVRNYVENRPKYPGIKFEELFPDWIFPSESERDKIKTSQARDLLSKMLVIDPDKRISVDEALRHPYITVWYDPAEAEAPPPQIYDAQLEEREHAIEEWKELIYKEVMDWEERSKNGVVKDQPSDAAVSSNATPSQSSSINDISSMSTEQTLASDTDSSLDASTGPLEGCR

[23] = Toxicity in Sprague-Dawley rat assessed as increase in body weight at 25 to 50 mg/kg administered daily for 4 weeks; type: organism-based; conditions: in vivo, 672 h, dose 25-50 mg/kg
[24] = Microsomal stability in dog liver microsomes assessed as half life at 50 uM preincubated for 5 mins with NADPH followed by compound addition and measured upto 60 mins by LC-MS/MS analysis; type: ADME, Canis lupus familiaris, Microsome
[25] = target: Ribosomal protein S6 kinase beta-1 (Homo sapiens, UniProt P23443); assay: Inhibition of P70S6K (unknown origin)
Chain of Ribosomal protein S6 kinase beta-1 (P23443 whole entry): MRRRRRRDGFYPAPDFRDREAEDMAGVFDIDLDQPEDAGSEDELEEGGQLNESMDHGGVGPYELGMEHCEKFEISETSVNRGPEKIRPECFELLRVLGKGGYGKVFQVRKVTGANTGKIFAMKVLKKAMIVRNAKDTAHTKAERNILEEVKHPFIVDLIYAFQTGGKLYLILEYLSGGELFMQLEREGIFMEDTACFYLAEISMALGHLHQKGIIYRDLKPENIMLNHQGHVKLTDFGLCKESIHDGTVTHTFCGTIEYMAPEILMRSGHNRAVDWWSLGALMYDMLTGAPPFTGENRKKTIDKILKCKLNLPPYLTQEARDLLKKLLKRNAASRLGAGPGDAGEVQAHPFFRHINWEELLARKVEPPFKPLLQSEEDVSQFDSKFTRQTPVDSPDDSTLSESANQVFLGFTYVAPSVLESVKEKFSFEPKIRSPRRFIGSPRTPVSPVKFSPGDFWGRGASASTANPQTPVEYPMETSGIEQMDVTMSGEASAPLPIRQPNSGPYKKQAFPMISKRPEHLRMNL

[26] = Drug metabolism in po dosed Sprague-Dawley rat bile assessed as M5 metabolite formation measured upto 24 hrs by UPLC-TOF-MS/MS analysis; type: ADME, organism-based; conditions: in vivo
OVCAR-8 = assay: Antiproliferative activity against human OVCAR-8 cells assessed as inhibition of cell growth incubated for 72 hrs by SRB method; type: functional, cell-based; conditions: OVCAR-8, 72 h
[27] = Drug metabolism in po dosed Sprague-Dawley rat urine assessed as M4 metabolite formation measured upto 72 hrs by UPLC-TOF-MS/MS analysis; type: ADME, organism-based; conditions: in vivo
[28] = Drug metabolism in po dosed Sprague-Dawley rat feces assessed as M5 metabolite formation measured upto 24 hrs by UPLC-TOF-MS/MS analysis; type: ADME, organism-based; conditions: in vivo
[29] = Toxicity in mouse assessed as brownish watery stool at 150 mg/kg; type: organism-based; conditions: in vivo
KHOS/NP [30] = assay: Antitumor activity against human KHOS cells xenografted in ig dosed BALB/c nude mouse assessed as tumor growth inhibition administered once daily for 22 days; type: functional, organism-based; conditions: dose 12.5-50 mg/kg, time 22.0 day
786-0 [31] = assay: Antiproliferative activity against human 786-0 cells assessed as inhibition of cell growth incubated for 72 hrs by SRB method; type: functional, cell-based; conditions: 786-0, 72 h
[32] = target: Protein kinase C theta type (Homo sapiens, UniProt Q04759); assay: Inhibition of PKCtheta (unknown origin)
Chain of Protein kinase C theta type (Q04759 whole entry): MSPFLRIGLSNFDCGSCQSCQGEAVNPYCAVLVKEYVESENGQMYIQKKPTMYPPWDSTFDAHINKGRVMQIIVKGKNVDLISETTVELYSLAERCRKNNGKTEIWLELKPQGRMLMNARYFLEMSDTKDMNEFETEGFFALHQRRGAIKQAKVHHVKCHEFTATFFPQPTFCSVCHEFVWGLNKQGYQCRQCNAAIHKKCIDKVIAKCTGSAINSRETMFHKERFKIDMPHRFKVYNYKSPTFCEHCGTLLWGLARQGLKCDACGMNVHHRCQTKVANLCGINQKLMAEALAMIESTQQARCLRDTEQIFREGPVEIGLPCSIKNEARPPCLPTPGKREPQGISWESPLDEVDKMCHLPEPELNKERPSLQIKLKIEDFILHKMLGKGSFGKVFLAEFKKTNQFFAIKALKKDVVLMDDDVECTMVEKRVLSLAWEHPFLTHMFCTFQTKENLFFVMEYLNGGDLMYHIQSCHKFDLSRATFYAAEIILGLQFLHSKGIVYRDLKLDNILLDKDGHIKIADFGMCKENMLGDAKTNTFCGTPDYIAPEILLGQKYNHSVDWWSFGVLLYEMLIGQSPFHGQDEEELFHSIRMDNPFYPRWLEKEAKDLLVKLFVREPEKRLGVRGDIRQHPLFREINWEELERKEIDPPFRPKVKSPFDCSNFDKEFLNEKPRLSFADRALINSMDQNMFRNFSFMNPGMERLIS

HT-29 = assay: Antiproliferative activity against human HT-29 cells assessed as inhibition of cell growth incubated for 72 hrs by SRB method; type: functional, cell-based; conditions: HT-29, 72 h

Cl.Cn1nccc1-c1ccc(C(=O)N[C@@H]2CNCC[C@H]2c2ccc(F)c(F)c2)c(F)c1
IC50 (U-251): 6.53 µM | IC50 (786-0 [1]): 2.5 µM | inhibition (Homo sapiens): Active | Tmax [2]: 6.6 min | Tmax [3]: 8.67 h | IC50 (Cytochrome P450 2D6): > 100 µM | Activity [4]: Toxic | Activity [5]: Non-Toxic | Drug metabolism [6]: Metabolite_Detected | Activity [7]: Non-Toxic | IC50 [8]: > 10 µM | Activity [9]: Non-Toxic | Activity [10]: Non-Toxic | Activity (KHOS/NP [11]): Active | AUC(0-t) at 72 h [12]: 2280 ng·h/mL | Activity [13]: Toxic | MTD [14]: 100 mg/kg | IC50 (Aurora kinase A): > 10 µM | Drug metabolism [15]: Metabolite_Detected | half-life at 50 µM [16]: 16.2 h | inhibition at 100 µM (CYP2C19): 65% | IC50 (HGC-27): 0.68 µM | IC50 (OS-RC-2): 9.9 µM | AUC(0-t) at 24 h [17]: 459 ng·h/mL | microsomal CLint at 50 µM [18]: 1.4 µL/min/mg | IC50 [19]: > 10 µM | half-life [20]: 16.7 h | IC50 (LNCaP): 0.61 µM | IC50 (Cytochrome P450 1A2): > 100 µM | Activity [21]: Non-Toxic | IC50 (Cytochrome P450 3A5): > 100 µM | IC50 [22]: > 10 µM | Activity [23]: Toxic | half-life at 50 µM [24]: 5.6 h | IC50 [25]: 0.229 µM | Drug metabolism [26]: Metabolite_Detected | IC50 (OVCAR-8): 3.52 µM | Drug metabolism [27]: Metabolite_Detected | Drug metabolism [28]: Metabolite_Detected | Activity [29]: Toxic | Activity (KHOS/NP [30]): Dose-Dependent Effect | IC50 (786-0 [31]): 8.6 µM | IC50 [32]: 0.629 µM | IC50 (HT-29): 20.3 µM
